Compound: CC1=C(C(=NN1)C)CC2=C(C3=C(S2)N(C(=O)N(C3=O)C)CC(C)C)C(=O)N4C[C@@H](CO4)O + N=C(N)NC(=N)NCCc1ccccc1 [Phenformin] (partner 250 µM)
Assay: relative viability (nuclei count vs DMSO), 5 days (fraction); higher = more cells survive
Settings: first compound 0.0025 µM
In short: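 Each reported value is a median over duplicate plates. It expresses relative viability: treated-well nuclei count divided by vehicle-well nuclei count. Lung cancer cell lines in 1536-well plates were dosed by pin tool a day after seeding, alone with one drug or with a fixed anchor-drug dose plus five library-drug doses (not always all listed) in √10 steps, and nuclei were counted after 5 days.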

Row | Cell Line | relative viability
1 | NCI-H1993 | 0.495
2 | SW 1573 | 0.239
3 | NCI-H838 | 0.567
4 | LCLC-103H | 0.329
5 | NCI-H520 | 0.501
6 | NCI-H2126 | 0.583
7 | EMC-BAC-2 | 0.538
8 | NCI-H2085 | 0.677
9 | HCC-366 | 0.622
10 | NCI-H1666 | 0.571
11 | NCI-H596 | 0.803
12 | LK-2 | 0.304
13 | NCI-H2087 | 0.45
14 | NCI-H2342 | 0.493
15 | SK-MES-1 | 0.701
16 | H3255 | 0.338
17 | COR-L23 | 0.397
18 | COR-L 105 | 0.34
19 | LOU-NH91 | 0.763
20 | ChaGo-K-1 | 0.467
21 | NCI-H2170 | 0.377
22 | NCI-H2405 | 0.348
23 | HOP-62 | 0.649
24 | HCC-44 | 0.263
25 | A549 | 0.116
26 | SW 900 | 0.735
27 | LU99A | 0.84
28 | BEN | 0.223
29 | NCI-H1563 | 0.667

Same assay, conditions: first compound 0.007906 µM

Row | Cell Line | relative viability
30 | NCI-H522 | 0.686
31 | NCI-H1623 | 0.408
32 | NCI-H727 | 0.504
33 | NCI-H1650 | 0.473
34 | NCI-H1993 | 0.416
35 | SW 1573 | 0.236
36 | NCI-H838 | 0.594
37 | LCLC-103H | 0.367
38 | NCI-H520 | 0.167
39 | NCI-H2126 | 0.526
40 | EMC-BAC-2 | 0.548
41 | NCI-H2085 | 0.674
42 | HCC-366 | 0.574
43 | NCI-H1666 | 0.621
44 | NCI-H596 | 0.764
45 | LK-2 | 0.321
46 | NCI-H2087 | 0.474

Row | Cell Line | relative viability
47 | NCI-H2342 | 0.532
48 | SK-MES-1 | 0.671
49 | H3255 | 0.368
50 | COR-L23 | 0.395
51 | COR-L 105 | 0.324
52 | LOU-NH91 | 0.752
53 | ChaGo-K-1 | 0.451
54 | NCI-H2170 | 0.384
55 | NCI-H2405 | 0.286
56 | HOP-62 | 0.564
57 | HCC-44 | 0.223
58 | A549 | 0.0979
59 | SW 900 | 0.675
60 | LU99A | 1.06
61 | BEN | 0.166
62 | NCI-H1563 | 0.666

Same assay, conditions: first compound 0.025 µM

Row | Cell Line | relative viability
63 | NCI-H522 | 0.376
64 | NCI-H1623 | 0.514
65 | NCI-H727 | 0.486
66 | NCI-H1650 | 0.457
67 | NCI-H1993 | 0.457
68 | SW 1573 | 0.115
69 | NCI-H838 | 0.433
70 | LCLC-103H | 0.393
71 | NCI-H520 | 0.192
72 | NCI-H2126 | 0.523
73 | EMC-BAC-2 | 0.518
74 | NCI-H2085 | 0.589
75 | HCC-366 | 0.669
76 | NCI-H1666 | 0.548
77 | NCI-H596 | 0.73
78 | LK-2 | 0.195

Row | Cell Line | relative viability
79 | NCI-H2087 | 0.395
80 | NCI-H2342 | 0.398
81 | SK-MES-1 | 0.629
82 | H3255 | 0.364
83 | COR-L23 | 0.342
84 | COR-L 105 | 0.231
85 | LOU-NH91 | 0.731
86 | ChaGo-K-1 | 0.407
87 | NCI-H2170 | 0.432
88 | HOP-62 | 0.656
89 | HCC-44 | 0.142
90 | A549 | 0.151
91 | SW 900 | 0.535
92 | LU99A | 0.798
93 | BEN | 0.221
94 | NCI-H1563 | 0.729

Same assay, conditions: first compound 0.07906 µM

Row | Cell Line | relative viability
95 | NCI-H522 | 0.327
96 | NCI-H1623 | 0.525
97 | NCI-H727 | 0.489
98 | NCI-H1650 | 0.506
99 | NCI-H1993 | 0.433
100 | SW 1573 | 0.123
101 | NCI-H838 | 0.453
102 | LCLC-103H | 0.341
103 | NCI-H520 | 0.179
104 | NCI-H2126 | 0.529
105 | EMC-BAC-2 | 0.478
106 | NCI-H2085 | 0.571
107 | HCC-366 | 0.606
108 | NCI-H1666 | 0.538
109 | NCI-H596 | 0.809
110 | LK-2 | 0.187
111 | NCI-H2087 | 0.471

Row | Cell Line | relative viability
112 | NCI-H2342 | 0.384
113 | SK-MES-1 | 0.686
114 | H3255 | 0.389
115 | COR-L23 | 0.355
116 | COR-L 105 | 0.279
117 | LOU-NH91 | 0.844
118 | ChaGo-K-1 | 0.447
119 | NCI-H2170 | 0.378
120 | NCI-H2405 | 0.277
121 | HOP-62 | 0.624
122 | HCC-44 | 0.208
123 | A549 | 0.161
124 | SW 900 | 0.779
125 | LU99A | 0.898
126 | BEN | 0.18
127 | NCI-H1563 | 0.711

Same assay, conditions: first compound 0.25 µM

Row | Cell Line | relative viability
128 | NCI-H522 | 0.265
129 | NCI-H1623 | 0.378
130 | NCI-H727 | 0.372
131 | NCI-H1650 | 0.46
132 | NCI-H1993 | 0.436
133 | SW 1573 | 0.117
134 | NCI-H838 | 0.489
135 | LCLC-103H | 0.317
136 | NCI-H520 | 0.198
137 | NCI-H2126 | 0.585
138 | EMC-BAC-2 | 0.601
139 | NCI-H2085 | 0.44
140 | HCC-366 | 0.693
141 | NCI-H1666 | 0.593
142 | NCI-H596 | 1.05
143 | LK-2 | 0.263
144 | NCI-H2087 | 0.447

Row | Cell Line | relative viability
145 | NCI-H2342 | 0.401
146 | SK-MES-1 | 0.704
147 | H3255 | 0.39
148 | COR-L23 | 0.344
149 | COR-L 105 | 0.244
150 | LOU-NH91 | 0.733
151 | ChaGo-K-1 | 0.47
152 | NCI-H2170 | 0.378
153 | NCI-H2405 | 0.268
154 | HOP-62 | 0.861
155 | HCC-44 | 0.225
156 | A549 | 0.168
157 | SW 900 | 0.589
158 | LU99A | 0.927
159 | BEN | 0.206
160 | NCI-H1563 | 0.667

From the supplement of paper PMC10307832
